Patent US20040002457A1, “Inhibition of virus anchorage by RGG domain of a cell surface-expressed protein, polynucleotide coding for said RGG domain, therapeutic uses thereof by inhibition of microorganism or protein ligand binding to the cell-surface-expressed protein” (priority 2002, published 2004)
Where two headings read alike, the source gives them in different places. No end group written: not given here.

How the values were obtained:
[1] = test system: HIV-1 LAI; details: cited from earlier work
[2] = test system: HIV particles; details: CD4+ target cells (refs 1, 4, 13, 26); cited from earlier work
[3] = test system: C-terminal part of nucleolin; assay: Biotinylated HB-19A binding to in vitro translated C-terminal part of nucleolin; set-up: species or system human; details: amino acids 309-707 (FIG. 6)
Sequence of C-terminal part of nucleolin (P19338 312-710 limits assumed): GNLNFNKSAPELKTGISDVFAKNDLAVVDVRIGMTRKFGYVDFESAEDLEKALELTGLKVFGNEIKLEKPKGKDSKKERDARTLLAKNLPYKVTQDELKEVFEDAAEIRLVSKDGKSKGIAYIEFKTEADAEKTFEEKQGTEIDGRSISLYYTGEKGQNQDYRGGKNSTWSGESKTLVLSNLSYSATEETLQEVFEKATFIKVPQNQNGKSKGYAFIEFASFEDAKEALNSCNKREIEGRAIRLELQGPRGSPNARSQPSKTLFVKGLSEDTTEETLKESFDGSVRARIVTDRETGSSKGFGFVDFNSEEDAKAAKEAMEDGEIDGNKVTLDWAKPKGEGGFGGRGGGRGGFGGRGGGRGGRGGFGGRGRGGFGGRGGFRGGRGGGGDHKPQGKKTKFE
Description: (§1) In vitro transcription and translation of human nucleolin. The TNT coupled reticulocyte lysate system (Promega) was used to produce the wild-type nucleolin (pcDNA4 Nuc) and the N- and C-terminal parts of nucleolin (pcDNA4 NucN and pcDNA4 NucC containing amino acids 1-308 and 309-707) by in vitro transcription/translation. Reactions were performed by using 2 μg of each plasmid and 20 μCi of […].
(§2) To assay the HB-19A binding capacity of the generated nucleolin and nucleolin truncated constructs, 25 μl of translation products were diluted in 25 μl of modified BI buffer (20 mM Tris-HCl, pH 7.6,100 mM NaCl, 50 mM KCl, 2 mM EDTA, 2% Triton X-100,1000 U/ml aprotinin), centrifuged at 12,000 g for 10 min at 4° C. and diluted in 150 μl of PBS. Binding reactions were performed by incubating 200 μl of each diluted lysates with the biotinylated HB-19A for 1 h at 4° C. Complexes formed between nucleolin deletion constructs and biotinylated HB-19A were isolated by purification of the extracts using avidin-agarose (100 μl) in PBS-EDTA (12). After 2 h of incubation at 4° C., the samples were washed extensively with PBS-EDTA. The purified proteins were eluted by heating in the electrophoresis sample buffer containing SDS and analyzed by SDS-PAGE.

[4] = test system: HIV; details: 1 μM HB-19A, different types of cells (refs 1, 10); cited from earlier work
[5] = biological target: T1, full-length nucleolin (Homo sapiens, UniProt P19338); assay: Biotinylated HB-19A binding to in vitro translated full-length nucleolin (avidin-agarose); details: amino acids 1 to 707, 0.5 or 1 μM biotinylated HB-19A (FIG. 6)
T1 construct: labeled full length nucleolin, N-terminal and the C-terminal parts containing amino acids 1 to 707; vector-encoded His leader of pcDNA4His/Max C (only the vector name is printed); made in house; host or cells: cell-free: TNT coupled rabbit reticulocyte lysate (Promega), 35S-Met/Cys labelled, used crude
T1 sequence (P19338 whole entry, the tested form may be a part): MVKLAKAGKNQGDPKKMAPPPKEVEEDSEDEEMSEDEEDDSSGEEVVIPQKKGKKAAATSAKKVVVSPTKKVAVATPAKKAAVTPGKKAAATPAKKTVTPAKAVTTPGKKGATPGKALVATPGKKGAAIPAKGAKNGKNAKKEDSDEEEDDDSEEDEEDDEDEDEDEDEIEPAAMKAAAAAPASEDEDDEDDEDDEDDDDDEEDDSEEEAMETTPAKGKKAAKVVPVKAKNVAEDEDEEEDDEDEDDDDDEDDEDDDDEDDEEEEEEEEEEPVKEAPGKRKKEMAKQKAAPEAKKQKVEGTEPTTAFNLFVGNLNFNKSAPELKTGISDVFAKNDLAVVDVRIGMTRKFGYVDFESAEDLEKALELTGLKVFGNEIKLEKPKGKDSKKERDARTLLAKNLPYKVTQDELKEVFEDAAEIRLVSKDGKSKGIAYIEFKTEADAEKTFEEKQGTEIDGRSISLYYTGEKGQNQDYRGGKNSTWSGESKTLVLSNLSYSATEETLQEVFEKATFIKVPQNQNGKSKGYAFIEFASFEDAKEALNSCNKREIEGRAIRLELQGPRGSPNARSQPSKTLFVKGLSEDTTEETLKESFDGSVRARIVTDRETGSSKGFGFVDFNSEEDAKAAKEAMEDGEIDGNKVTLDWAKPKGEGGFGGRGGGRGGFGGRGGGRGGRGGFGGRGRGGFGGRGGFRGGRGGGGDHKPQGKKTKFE
Description: as §1, §2

[6] = test system: HeLa P4 cells; assay: HB-19A binding to HeLa P4 cells (125I-labeled HB-19A); set-up: species or system human; details: HeLa P4 cells washed at 300 mM NaCl (FIG. 3A)
Description: (§3) Assay of HB-19A binding to cells. Cells were plated at 10^4 cells/well in 96-well-plates for the ^1251-labeled HB-19A binding or at 10^5 cells/well, in 24-well-plates for the biotinylated HB-19A binding. Twenty four hours later, binding experiments were performed after incubation of the cell monolayers in fresh culture medium for 1 h at room temperature (about 21° C.) in order to cool cells. It should be noted that intracellular entry of HB-19A is inhibited more than 90% at room temperature. Cells were incubated (30 min at room temperature) with different concentrations of the ^125I-labeled HB-19A or the biotinylated HB-19A before washing cells in culture medium containing 10% FCS. For total amount of binding (specific and non-specific), cells were washed 7 times with culture medium. For specific binding measurements, cells were first washed 3 times in culture medium supplemented with 150 mM NaCl thus bringing the final concentration of NaCl to 300 mM followed by 4 washings in culture medium. Washed cells were processed to reveal either the ^125I-labeled HB-19A or the biotinylated HB-19A. For the ^1251-labeled HB-19A binding, cell monolayers were extracted in 1% SDS and the radioactivity was measured in an automatic gamma counter (LKB Wallac Clini Gamma 1272). […] Finally, ortho-phenylenediamine solution was added in the dark and the absorbance was measured at 405 nm.

[7] = test system: CHO K1 cells; assay: Biotinylated HB-19A binding to wild type CHO K1 cells; set-up: species or system Chinese hamster; details: wild type CHO K1 cells (FIG. 3B)
Description: as §3

[8] = test system: RGG domain of nucleolin; assay: Biotinylated HB-19A binding to GST constructs of nucleolin containing the RGG domain; set-up: species or system human; details: constructs containing the RGG domain (FIG. 8, lanes 1234G, R234G, G)
Sequence of RGG domain of nucleolin (P19338 648-710 limits assumed): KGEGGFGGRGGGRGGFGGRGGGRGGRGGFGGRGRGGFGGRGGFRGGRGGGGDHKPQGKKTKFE
Description: Expression and purification of recombinant nucleolin constructs. Escherichia coli (E. coli) BL21 (DE3) cells were transformed with each pGEX-N3 plasmid coding for truncated derivatives of the C-terminal part of human nucleolin. Cells were grown overnight at 37° C. in 100 ml of Terrific Broth containing 100 μg of ampicillin per ml. After 1:50 dilution in 100 ml of fresh medium, cells were grown at 30° C. to a 600 nm optical density of approximately 0.5 (6 h) and induced with 0.5 mM isopropyl-1-thio-D-galactopyranoside (IPTG) for an additional 2 h. Bacteria were pelleted at 4,000 g for 10 min at 4° C., resuspended in 5 ml of PBS containing 0.2 mM phenylmethylsulphonyl flouride (PMSF) and 1 mM DTT, and frozen at −20° C. overnight. […] The presence of proteins in cell extracts was monitored by SDS-Page with Coomassie blue staining, and their respective concentration estimated and adjusted.
To assay HB-19A binding capacity, bacterial extracts were first diluted 5-fold in PBS-EDTA before centrifugation at 12,000 g for 10 min at 4° C. […] The purified proteins were eluted by heating in the electrophoresis sample buffer containing SDS and analyzed by immunoblotting using anti-GST monoclonal antibody B-14 (Santa Cruz Biotechnology, Inc.).

[9] = test system: HIV-1 LAI; assay: HIV-1 LAI infection in HeLa P4 cells (LTR-lacZ, β-galactosidase); type: cell-based; details: HB-19A 1 μM (FIG. 9)
Description: Assay of HIV infection in HeLa CD4+cells. HIV-1 LAI infection was monitored indirectly in HeLa-CD4-LTR-/ac Z cells (HeLa P4 cells) containing the bacterial lac Z gene under the control of HIV-1 LTR. HIV-1 entry and replication result in the activation of the HIV-1 LTR leading to the expression of p-galactosidase. At 48 h post-infection, cells were lysed and assayed for β-galactosidase activity using the chlorophenol-red-β-D-galactopyranoside as a substrate. The optical density was measured at 570 nm (1). The HIV-1 Ba-L infection was monitored in HeLa-CD4-LTR-/ac Z cells but expressing also CCR5 (HeLa F4-C5 cells) as above (1).
Assay of peptides for their activity. Each peptide is tested at different concentrations to investigate their capacity to inhibit HIV infection. Each peptide is investigated for its binding capacity to the HB-19, using biotin-coupled HB-19.

[10] = biological target: T2, N-terminal part of nucleolin (Homo sapiens, UniProt P19338); assay: Biotinylated HB-19A binding to in vitro translated N-terminal part of nucleolin; details: amino acids 1 to 308, contains the acidic stretches (FIG. 6)
T2 construct: pcDNA4 NucN and pcDNA4 NucC containing amino acids 1-308 and 309-707; vector-encoded His leader of pcDNA4His/Max C (only the vector name is printed); made in house; host or cells: cell-free: TNT coupled rabbit reticulocyte lysate (Promega), 35S-Met/Cys labelled, used crude
T2 sequence (P19338 1-308): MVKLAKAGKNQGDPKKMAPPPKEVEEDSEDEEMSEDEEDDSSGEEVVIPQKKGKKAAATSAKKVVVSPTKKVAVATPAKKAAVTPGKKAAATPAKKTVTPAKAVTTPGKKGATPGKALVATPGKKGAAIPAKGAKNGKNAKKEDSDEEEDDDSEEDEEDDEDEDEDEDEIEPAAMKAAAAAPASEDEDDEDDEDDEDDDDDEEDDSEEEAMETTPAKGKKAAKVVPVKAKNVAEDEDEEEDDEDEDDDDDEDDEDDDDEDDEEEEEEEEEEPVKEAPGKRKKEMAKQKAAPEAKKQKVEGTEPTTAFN
Description: as §1, §2

[11] = test system: CHO 618 cells; assay: Biotinylated HB-19A binding to mutant CHO 618 cells; set-up: species or system Chinese hamster; details: CHO 618 devoid of heparan- and chondroitin-sulfate proteoglycans (FIG. 3B)
Description: as §3

Substance: 5[Kψ(CH2N)PR]-TASP [HB-19]
- HIV entry at the level of HIV attachment, pretreatment of cells ([1]; HeLa P4 cells (refs 1, 4)): inhibition of HIV entry
- resistance to HIV of pretreated cells after removal of the medium containing the inhibitor ([1]; several hours after removal (ref 1)): remain resistant
- anchorage of HIV particles [2]: inhibited

Substance: HB-19A: new generation of HB-19 presenting pentavalently the Kψ(CH2N)PR moiety coupled to a modified TASP template (peptide Lys-Pro-Arg; chain KKKKA; also: Kψ(CH2N)P reduced bond, pentavalent on modified TASP template)
- binding to C-terminal part of nucleolin [3]: bound efficiently
- inhibition of HIV infection [4]: more than 95%
- binding to full-length nucleolin [5]: bind
- concentration at which specific binding reaches saturation [6]: 1 µM
- concentration at which binding reaches saturation [7]: 1 µM
- HB-19A concentration at which binding reaches maximum value [8]: 5 µM
- HIV entry at the level of HIV attachment, pretreatment of cells [9]: inhibition of HIV entry
- binding to N-terminal part of nucleolin [10]: did not bind at all
- HB-19A binding profile compared with CHO K1 [11]: no significant difference
- anchorage of HIV particles [2]: inhibited

Substance: RRWCYRKDKPYRKCR [TW70, anti-HIV cyclic peptide specific for CXCR4, reference compound]
- anchorage of HIV particles [2]: inhibited

Substance: fibroblast growth factor 2: growth factor which binds heparan sulfate proteoglycans
- anchorage of HIV particles [2]: inhibited
